Assay results published in US11236056B2, “Small molecules and methods of reducing injuries caused by radiation or chemicals” (priority 2019, dated 2022).
In brackets after ≈: the same amount, converted by molar mass. Like-named read-outs stand apart in the source and are kept apart here.

Key:
[1] = system: NIH-Swiss female mice; assay: Radioprotection compared with amifostine, 45 min before or after TBI (Example 4); type: in vivo
Experimental: NIH-Swiss female mice were divided into 8 groups (10 mice/group). (A) Forty-five min prior to 7.5 Gy TBI, mice were treated by i.p. injection with UTS-1401 (75 mg/kg), amifostine (75 mg/kg) or vehicle, respectively. Mice in control group were not irradiated. (B) Same procedure as in (A) except that mice were treated by testing agents forty-five min after 7.5 Gy TBI.
FIG. 4 is a graph of the effects of UTS-1401 and amifostine on TBI induced in NIH-Swiss mice mortality administered 45 minutes before TBI determined according to Example 4.
FIG. 5 is a graph of the effects of UTS-1401 and amifostine on TBI induced in NIH-Swiss mice mortality administered 45 minutes after TBI determined according to Example 4.

[2] = system: NIH-Swiss female mice; assay: Radioprotection against TBI induced mortality, 30 min pretreatment (Example 2); type: in vivo; details: 80 mg/kg i.p. 30 min prior to 7.5 Gy TBI
Experimental: NIH-Swiss female mice were divided into 5 groups (8 mice/group). Thirty min prior to 7.5 Gy TBI, mice were treated by i.p. injection with UTS-1401, -1402, and -1403 (80 mg/kg each) or vehicle, respectively. Mice in control group were not irradiated. Definition of “death” used in this study was when a mouse actually died or when a mouse lost 20% or more of its bodyweight.
FIG. 2 is a graph of the radioprotection of UTS-1401, -1402, and -1403 determined according to Example 2.

[3] = system: NIH-Swiss female mice; assay: Drug dose-dependent radioprotection against TBI induced mortality, 30 min pretreatment (Example 3); type: in vivo; details: 25 or 75 mg/kg i.p. 30 min prior to 7.5 Gy TBI
Experimental: NIH-Swiss female mice were divided into 4 groups (8 mice/group). Thirty min prior to 7.5 Gy TBI, mice were treated by i.p. injection with UTS-1401 (0, 2, or 6 mg/mL or 0, 25, or 75 mg/kg) or vehicle, respectively. Mice in control group were not irradiated. Definition of “death” used in this study was when a mouse actually died or when a mouse lost 20% or more of its bodyweight.
FIG. 3 is a graph of the dose-dependent effect of UTS-1401 on TBI induced mortality in NIH-Swiss mice determined according to Example 3.

[4] = system: NIH Swiss male mice; assay: Radioprotection, 24 hr pretreatment, male mice (Example 5); type: in vivo
Experimental: NIH Swiss male mice were studied for the radioprotective effects of UTS-1401 at 50, 100, and 150 mg/kg respectively by i.p. injection at 24 hr before TBI at 6.5, 7.5, and 8.5 Gy. […] These observations indicate that UTS-1401 is effective as a radioprotector for male NIH Swiss mice against TBI of both 7.5 and 8.5 Gy.
FIG. 6 is a graph of the effect of UTS-1401 on TBI induced mortality in NIH-Swiss mice administered at 100 mg/kg determined according to Example 5.

[5] = system: NIH Swiss female mice; assay: Radioprotection, 24 hr pretreatment, female mice (Example 5); type: in vivo
Experimental: Only 8.5 Gy results are summarized here.
FIG. 7 is a graph of the effect of UTS-1401 on TBI induced mortality in NIH-Swiss mice administered at 150 mg/kg determined according to Example 5.

[6] = system: H9C2 cardiomyocytes; assay: Protection against doxorubicin-induced damage on cardiomyocytes in vitro (MTT assay); type: cell-based; details: 30 min pretreatment before DOX, assayed 3 days later
Experimental: Briefly, myocardiocytes H9C2 were cultured in high glucose DMEM with 10% bovine calf serum and 10,000 cells per well of cardiomyocytes were treated by DOX with and without the 30 min pretreatment of UTS-1401. The survival rates were assayed by MTT assay 3 days later.
FIG. 8 is a graph showing protection of UTS-1401 on H9C2 cardiomyocytes against DOX-induced determined according to Example 6.

[7] = Solubility determination of UTS-14 compounds; type: physicochemical; details: thermodynamic from solid
Experimental: If the compound was not dissolved, more solvent was added and the solution was watched again after one day. This procedure was continued until the compound was completely dissolved, after which the solubility was calculated.

[8] = 75 mg/kg i.p. 45 min after 7.5 Gy TBI
[9] = 75 mg/kg i.p. 45 min before 7.5 Gy TBI
[10] = 50, 100, and 150 mg/kg 24 hr before 8.5 Gy TBI
[11] = water, rm temp, read-out: solubility in water

NCCCNCCSP(=O)(O)O [amifostine, Amifostine, reference compound]
survival rate of mice [1, 8]: did not increase the survival rate
survival rate of mice [1, 9]: increased the survival rate

CSCc1cc(C(=O)O)no1 [UTS-1401]
survival of irradiated mice [2]: increased the survival
survival rate of mice [3]: increased the survival rate of mice in a dose-dependent manner
survival rate of mice [1, 8]: significantly increased the survival rate
survival rate of mice [1, 9]: increased the survival rate
radioprotection as compared with amifostine ([1]; 75 mg/kg i.p. 45 min before or after 7.5 Gy TBI): better radioprotection as compared with amifostine
survival rates ([4]; 50, 100, 150 mg/kg i.p. 24 hr before 7.5 Gy TBI): greatly increased
dose dependence of survival rates ([4]; 50, 100, 150 mg/kg i.p. 24 hr before 7.5 and 8.5 Gy TBI): drug-dose dependent
survival rates ([4]; 50, 100, 150 mg/kg i.p. 24 hr before 8.5 Gy TBI): greatly increased
day from which average body wt of surviving pretreated mice started to recover ([4]; i.p. 24 hr before TBI): ~20 days
dose dependence of radioprotective effects [5, 10]: essentially the same for all 3 doses
radioprotective effects / mortality [5, 10]: significant radioprotective effects and reduced the mortality
optimal dose ([5]; 24 hr before 8.5 Gy TBI): around 50 mg/kg
protection of cardiomyocytes (survival rates by MTT) [6]: protected cardiomyocytes significantly
solubility ([7]; saline or isotonic, saline, 37° C., read-out: solubility in saline at 37° C.): 12 mg/mL (≈ 69.3 mM)
solubility [7, 11]: ~9.5 mg/mL (≈ 54.9 mM)

CS(=O)(=O)Cc1cc(C(=O)O)no1 [UTS-1403]
survival of irradiated mice [2]: increased the survival
solubility ([7]; Hank's Balanced Salt Solution (HBSS), saline or isotonic, read-out: solubility in Hank's Balanced Salt Solution (HBSS)): ~15.8 mg/mL
solubility [7, 11]: ~9.1 mg/mL (≈ 44.3 mM)

C[S+]([O-])Cc1cc(C(=O)O)no1 (stereo not shown) [UTS-1402]
survival of irradiated mice [2]: increased the survival
solubility [7, 11]: ~16 mg/mL (≈ 84.6 mM)
